Experimental data: publication PMC10692375 (Acta Pharmaceutica Sinica. B, 2023)

System: 22Rv1 xenografts
Assay: 22Rv1 xenograft model
Format: in vivo, mice
Details: DD1-Br 0.1 mg/kg i.p., ENZ 10 mg/kg p.o., alone or combined, 5 times a week

Compound: CNC(=O)c1ccc(N2C(=S)N(c3ccc(C#N)c(C(F)(F)F)c3)C(=O)C2(C)C)cc1F [ENZ, enzalutamide]
- tumor growth: did not show significant effect
